ChEMBL document CHEMBL1127391, “Generally applicable, convenient solid-phase synthesis and receptor affinities of octreotide analogs” (J Med Chem, 1994)

Target: Somatostatin receptor
Experiment: Dissociation constant binding to somatostatin receptor of At-20 mouse pituitary carcinoma cell membranes
Conditions: pituitary gland cell

Kd: 5.57 nM
Structure (SMILES): C[C@H](O)[C@H](CO)NC(=O)[C@H](CS)NC(=O)[C@@H](NC(=O)[C@H](CCCCN)NC(=O)[C@@H](Cc1c[nH]c2ccccc12)NC(=O)[C@H](Cc1ccccc1)NC(=O)[C@H](CS)NC(=O)[C@@H](Cc1ccccc1)NC(=O)CN(CCN(CCN(CC(=O)O)CC(=O)O)CC(=O)O)CC(=O)O)[C@@H](C)O
